Tests used:
[1] = system: MCF-7 (breast cancer) cell line; assay: MTT cell viability assay, MCF-7; format: cell-based
Method: (§1) The MTT assay, which is based on the reduction of 3-(4,5-dimethylthiazol-2-yl)-2,5-diphenyltetrazolium bromide to a purple formazan product, was performed to estimate cell viability and growth. To determine the appropriate dose and time, we performed the MTT assay in HepG2, MCF-7, Caco-2, and Vero cell lines. Cell suspensions of […] cell lines were first prepared at densities of 1 × 10^4/mL cells per well of 96-well culture dishes and plated in triplicate. Cells were then incubated with the complexes (2.5, 5, 10, 25, and 50 μM) for 24 and 48 h. After the treatment using the complexes, a 10 μL MTT (Glentham Life Sciences, GC4568) solution was added to each well, followed by incubation for 4 h at 37°C in 5% CO2. The medium was then discarded, and 50 μL DMSO was added to each well to dissolve the formazan crystals. The absorbance was immediately measured at 540 nm using a UV-visible spectrophotometer multiplate reader.

FS-DNA = FS-DNA binding by UV-Vis titration; conditions: complex 0–15 μM, 20 mM Tris-HCl/NaCl buffer pH 7.2
Method: To investigate these interactions, UV-Vis analyses were performed on complexes Ru1-3 (0–15 μM) in 20 mM Tris-HCl/NaCl buffer (pH 7.2) containing 0.1 mM FS-DNA. The corresponding absorption spectra are provided in the supporting information. Aromatic naphthyl groups are known for their ability to intercalate between DNA base pairs. […] While Ru1 is a cationic complex with a high capacity for hydrogen bonding, potentially facilitating ionic interactions with DNA, its overall interaction was weaker compared to the other complexes.
UV-visible spectroscopy was employed to investigate the interaction between […] and Ru1-3. Different concentrations of Ru1-3 (0–15 μM) were titrated against a fixed concentration of FS-DNA ([…]) to monitor changes in absorbance at 260 nm. The analysis of these titration data allowed for the determination of the binding constant (Kb) using the following equation:(1) 1/A−A0=1/Amax−A0+1/C×1/KbAmax−A0, where A is the absorbance of FS-DNA at a specific concentration with increasing complex concentration, A0 is the absorbance of FS-DNA without complex, Amax is the absorbance of the FS-DNA complex at the final state, and C is the complex concentration.

[2] = system: Vero (normal kidney) cell line; assay: MTT cell viability assay, Vero; format: cell-based; conditions: for IC50: MTT
Method: as §1

[3] = system: HepG2 (liver cancer) cell line; assay: MTT cell viability assay, HepG2; format: cell-based
Method: as §1

[4] = system: Caco-2 (colorectal cancer) cell line; assay: MTT cell viability assay, Caco-2; format: cell-based
Method: as §1

- IC50 ([1]; 24 h exposure): 2.81 µM
- IC50 ([1]; 48 h exposure): 8.75 µM
- Binding constant (Kb) with FS-DNA (FS-DNA): 22700 M⁻¹
- IC50 ([3]; 24 h exposure): 4.72 µM
- IC50 ([3]; 48 h exposure): 8.8 µM
- IC50 ([4]; 24 h exposure): 1.39 µM
- IC50 ([4]; 48 h exposure): 3.39 µM
Structure (SMILES): Cc1ccc(C(C)C)cc1.Cc1ccc(S(=O)(=O)[N](CCNc2cccc3ccccc23)[Ru][Cl])cc1 [Ru2]
- Cytotoxic activity in Vero healthy cell line ([2]; 50–2.5 μM, 24 h and 48 h): did not manifest any cytotoxic activity at concentrations other than 50 μM
- IC50 ([2]; 24 h exposure): 7.8 µM
- IC50 ([2]; 48 h exposure): 38.3 µM

Source: PMC12066179, “Naphthyl-Substituted Ruthenium(II)–Arene Complexes: Exploring the Impact of Binding Modes on Cytotoxicity in Cancer and Normal Cell Lines” (Bioinorganic Chemistry and Applications, 2025)
